The term IC50 denotes the concentration that inhibits the measured activity by half. Read a high IC50 as lower potency. The bioavailability is the share of a dose that reaches the circulation, judged against a reference dose that is usually intravenous.

Experimental findings from patent publication US12084442B2, “Naphthyridinone derivatives for the treatment of a disease or disorder” (Novartis AG, priority 2021, dated 2024) are described below.

A short description of data set [1]: Pharmacokinetic properties in rats (IV and PO, whole blood LC-MS/MS). The note with it: for Rat AUC0-24 h 3 mg/kg: 3 mg/kg PO, suspension; for Rat AUC0-24 h 3 mg/kg / clearance: whole blood; for clearance: male, Sprague Dawley/CD, rat, IV dosing (0.3-1 mg/kg), CL = Dose/AUCinf; for Rat F: oral bioavailability, PO 3 mg/kg vs IV. It is filed as in vivo, Spargue Dawley/CD, male. The method, then: The pharmacokinetic properties of the compounds in rats were assessed by the following in vivo studies as described below.
At least four days before first drug administration, the rats (250-350 g) were anesthetized and, under aseptic conditions, catheters were surgically implanted into the left and right jugular veins (one for blood collection and the other one for intravenous injection). The catheters were exteriorized and fixed at the neck. For analgesic treatment, animals received analgesics before surgery and subsequently twice at appropriate times after surgery. The freely-moving animals equipped with catheters are kept individually in Macrolon cages, with free access to food and water throughout the experiment. After a recovery phase of at least 4 days, a single test compound was administered intravenously or orally, based upon the individual body weights.
The test articles were administered as solution in NMP:PEG 200 (10:90 v/v). Test articles where no solution can be obtained were rejected and not used in discrete or cassette dosing.
The test article were administered as suspension in MC:Tween 80:water (0.5:0.1:99.4 w/v/v).
The test article was administered as solution and as a bolus injection or as short I.V. infusion (30 seconds) via the left jugular vein catheter to conscious rats. The dose volume was 0.5 mL/kg body weight.
The test article was administered as a solution or suspension into the esophagus via a gavage tube to conscious rats. The dose volume was 5 mL/kg body weight. The exact start time of dosing and exact dose volume was noted.
Blood samples (20 μL) were collected from the right jugular vein catheter of cannulated animals (if JV catheter becomes non patent during the PK experiment (i.e., after dosing), blood can exceptionally be collected by tail vein puncture but it must be clearly specified into the in-life observations and data study rep) in tubes containing 10% of blood of 2% W/V K2 EDTA (2.0 mg/mL) at the different time intervals. Blood was collected following IV dosing at 0.083, 0.25, 0.5, 1, 2, 4, 7 and 24 h post dose. Blood was collected following PO dosing: 0.25, 0.5, 1, 2, 4, 7 and 24 h post dose.
The concentrations of compounds in whole blood were quantified using a liquid chromatography/mass spectrometry (LC-MS/MS) assay. 20 μL of each blood sample were precipitated with 100 μL of acetonitrile containing generic internal standards (carbamazepine/telmisartan/verapamil; c=50 ng/mL). The samples were vortexed thoroughly then centrifuged (5 min, 4° C.). The supernatant (80 μL) was transferred to a clean 96-well plate and mixed with 80 μL of water.
The samples were injected (1 to 20 μL) onto suitable analytical columns, using various isocratic methods and flow rates. Mobile phases typically consisting of 0.1% formic acid in water (solvent A) and 0.1% formic acid in acetonitrile (solvent B) with additional modifiers, if needed. Compounds and the internal standards were eluted at various retention times. The HPLC systems were interfaced to mass spectrometers. MS/MS analyses were carried out using electrospray ionization (ESI), typically in the positive ionization mode. Compounds and the internal standards were monitored using multiple reaction monitoring (MRM).
The standard curves employed for sample quantitation ranged over several log units. The lower limit of quantitation (LLOQ) in blood was determined and used as cutoff for the analytical sensitivity. Known amounts of the compounds were spiked into blood to create quality control samples with six known concentrations in singlets. The accuracy of the in vivo blood sample concentration determination was considered acceptable when the intra-assay accuracies obtained for the quality control samples were within 70% to 130% of the expected concentrations. Subsequently, from the time concentration data, pharmacokinetic parameters were calculated by non-compartmental regression analyses using an in house fitting program. […]

Another data set concerns the target GIRK1/4 (Homo sapiens (Human), UniProt P48544+P48549). The experiment in a line: GIRK1/4 activity assay (Quattro/IonWorks population patch clamp, inward potassium current). It is filed as cell-based. The note with it: GIRK1/4 HEK293 stable cells; current inhibition normalized to DMSO-only control. As to the method: The GIRK1/4 activity of a compound according to the present invention was assessed by the following in vitro method.
• a. External buffer: 10 mM NaCl, 50 mM Na Gluconate, 80 mM K Gluconate, 1.8 mM CaCl2, 1 mM MgCl2, 10 mM HEPES, 10 mM Glucose, pH 7.4; osmolarity 300-310 Osm/L. • b. Internal buffer: 30 mM KCl, 100 mM K Gluconate, 1 mM MgCl2, 10 mM HEPES, 1 mM EGTA, 10 mM NaCl, pH 7.2; osmolarity 284-292 Osm/L. Compounds: • c. Prepare seven-fold compound dilution series (10 mM to 20 uM) in 100% DMSO, in 384-well polypropylene plates. • d. Propafenone (Sigma Aldrich, catalog number P4670) was used as a positive control and DMSO for neutral control • e. Resuspend 1 μl of compounds in DMSO into 66.7 μl external buffer in 384-well polypropylene plate and load into Plate 1 section of Molecular Devices Quattro® Quattro Setup: • f. Load 384-well Population Patch Plate (Molecular Devices #9000-0902) into Quattro • g. Fill Quattro F-soak trough with 20% DMSO and 50% EtOH • h. Fill Quattro buffer trough with external buffer • i. Attach internal buffer flask to Quattro internal buffer tubing • j. Attach PBS (Phosphate Buffered Saline, minus Ca^++ and Mg^++, pH7.4) bottle to F-head & E-head wash on Quattro Antibiotic: • k. Resuspend 5.1-5.8 mg amphotericin B (Sigma Aldrich, catalog number A2411) in 175 μl DMSO • l. Add the resulting solution to 50 mL internal buffer and attach to antibiotic tubing port on Quattro Cells: • m. Use GIRK1/4 HEK293 stable cells (obtained from ChanTest, 14656 Neo Parkway, Cleveland, Ohio 44128) grown to ˜80% confluency in the following cell culture medium: DMEM containing 10% (v/v) Fetal Bovine Serum, Penicillin/Streptomycin (at “IX” concentration from a 100× stock), 0.5 mg/mL G418 and 0.1 mg/mL Zeocin. • n. Detach cells using Detachin (Genlantis, 11011 Torreyana, San Diego, CA 92121), washed with PBS (minus Ca^++ and Mg^++) and resuspend in external buffer (5 mL final volume at 2.0-2.1×10^6 cells/mL) • o. Load into cell trough of Quattro Assay Protocol:
Quattro was controlled using IonWorks v2 software to perform the following steps: • p. Added 3.5 μl cells plus 3.5 μl external buffer to wells of Quattro Patch Plate® • q. Circulated amphotericin B and internal buffer onto cells • r. Applied the following voltage protocol: Pulse 1: 15 mV for 300 milliseconds (ms), followed by Pulse 2: −120 mV for 400 ms, then Pulse 3: −15 mV for 400 ms, and finally Pulse 4: −120 mV to 40 mV over 500 ms (this is a voltage ramp). • s. Measured magnitude of inward potassium current at time point between 1200-1220 ms from start of Pulse 1 (i.e., during the voltage ramp phase). • t. Added 3.5 μl of diluted compounds (or DMSO) to wells and repeated […] (final compound concentrations are 50 uM to 0.1 uM, and each concentration was tested in quadruplicate—i.e., in 4 separate wells). • u. The difference between current magnitude pre vs. post-compound gave a measure of GIRK1/4 inhibition. Data Analysis:
IC50 values were calculated by plotting the percentage of current inhibition (normalized to the DMSO-only control) as a function of compound concentration using standard data analysis software.

The nature of data set [2]: Pharmacokinetic study in male Beagle dogs. It is filed as in vivo.

Sequence of GIRK1/4 (P48549 whole entry): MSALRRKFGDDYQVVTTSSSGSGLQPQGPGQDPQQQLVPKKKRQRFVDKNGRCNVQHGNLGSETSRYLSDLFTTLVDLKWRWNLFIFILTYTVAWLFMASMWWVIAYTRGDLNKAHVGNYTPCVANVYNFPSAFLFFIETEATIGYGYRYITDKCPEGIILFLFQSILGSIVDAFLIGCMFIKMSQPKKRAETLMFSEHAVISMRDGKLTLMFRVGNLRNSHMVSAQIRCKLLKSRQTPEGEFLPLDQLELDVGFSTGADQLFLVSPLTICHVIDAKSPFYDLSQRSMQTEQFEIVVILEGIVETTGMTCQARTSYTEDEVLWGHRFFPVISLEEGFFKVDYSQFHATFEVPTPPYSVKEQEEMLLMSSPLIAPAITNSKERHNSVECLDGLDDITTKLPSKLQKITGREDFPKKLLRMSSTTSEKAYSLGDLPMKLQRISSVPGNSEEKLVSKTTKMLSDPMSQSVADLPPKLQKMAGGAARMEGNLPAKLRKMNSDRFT
Sequence of GIRK1/4 (P48544 whole entry): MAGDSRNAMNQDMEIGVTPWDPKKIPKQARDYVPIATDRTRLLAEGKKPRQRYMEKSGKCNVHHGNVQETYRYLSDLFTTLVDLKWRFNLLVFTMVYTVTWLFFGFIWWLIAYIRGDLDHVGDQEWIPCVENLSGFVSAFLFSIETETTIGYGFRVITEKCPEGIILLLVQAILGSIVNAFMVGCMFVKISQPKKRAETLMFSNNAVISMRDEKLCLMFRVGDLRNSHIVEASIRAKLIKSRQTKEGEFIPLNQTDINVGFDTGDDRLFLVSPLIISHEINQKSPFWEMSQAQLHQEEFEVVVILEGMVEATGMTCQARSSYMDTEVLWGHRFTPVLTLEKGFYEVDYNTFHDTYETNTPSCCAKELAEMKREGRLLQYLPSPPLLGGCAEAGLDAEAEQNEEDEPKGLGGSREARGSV

`CNC(=O)CCOc1ncc(Cl)c2c1c(=O)cc(C)n2-c1c(Cl)cc(OCCO)cc1Cl` [Example 1, 3-((8-Chloro-1-(2,6-dichloro-4-(2-hydroxyethoxy)phenyl)-2-methyl-4-oxo-1,4-dihydro-1,6-naphthyridin-5-yl)oxy)-N-methylpropanamide]: in data set [1], the “Rat AUC0-24 h 3 mg/kg” value came out at 3270 nMh, the clearance turned out to be 20.2 mL/min/kg and the “Rat F” value came to 71%. Besides, the IC50 on GIRK1/4 was found to be 90 nM. Moreover, the AUC0-24 h in data set [2] (0.3 mg/kg IV solution and 1 mg/kg PO suspension) is listed as 5270 nMh. In addition, in data set [2] (dog, in vivo, 0.3 mg/kg IV as a solution, read-out: Clearance (Cl)), the clearance was 5.5 mL/min/kg. Moreover, the bioavailability in data set [2] (dog, in vivo, 1 mg/kg PO as a suspension vs 0.3 mg/kg IV, read-out: Oral bioavailability (F)) worked out at 87%.
`Cc1cc(=O)c2c(CCCS(C)(=O)=O)ncc(Cl)c2n1-c1c(Cl)cc(OCC(C)(C)O)cc1Cl` [Example 22, 8-Chloro-1-(2,6-dichloro-4-(2-hydroxy-2-methylpropoxy)phenyl)-2-methyl-5-(3-(methylsulfonyl)propyl)-1,6-naphthyridin-4(1H)-one]: in data set [1], the “Rat AUC0-24 h 3 mg/kg” value is given as 1360 nMh, the clearance was determined as 23.6 mL/min/kg and the “Rat F” value is on record as 37%. In addition, the IC50 on GIRK1/4 worked out at 190 nM.
